ChEMBL document CHEMBL2440080, “Synthesis and biological evaluation of novel acylhydrazone derivatives as potential antitumor agents” (Bioorg Med Chem, 2013)

Experiments:
[1] = test system: SR; assay: Cytotoxicity against human SR cells after 48 hrs by sulforhodamine B assay; assay type: functional
[2] = test system: HL-60(TB); assay: Cytotoxicity against human HL-60(TB) cells after 48 hrs by sulforhodamine B assay; assay type: functional; conditions: HL-60, 48 h
[3] = test system: M14; assay: Cytotoxicity against human M14 cells after 48 hrs by sulforhodamine B assay; assay type: functional; conditions: M14, 48 h
[4] = test system: RPMI-8226; assay: Cytotoxicity against human RPMI8226 cells after 48 hrs by sulforhodamine B assay; assay type: functional; conditions: RPMI-8226, 48 h
[5] = test system: SF-268; assay: Cytotoxicity against human SF268 cells after 48 hrs by sulforhodamine B assay; assay type: functional; conditions: SF-268, 48 h
[6] = test system: HOP-92; assay: Cytotoxicity against human HOP92 cells after 48 hrs by sulforhodamine B assay; assay type: functional; conditions: HOP-92, 48 h
[7] = test system: T47D; assay: Cytotoxicity against human T47D cells after 48 hrs by sulforhodamine B assay; assay type: functional
[8] = test system: PC-3; assay: Cytotoxicity against human PC3 cells after 48 hrs by sulforhodamine B assay; assay type: functional; conditions: PC-3, 48 h
[9] = test system: IGROV-1; assay: Cytotoxicity against human IGROV1 cells after 48 hrs by sulforhodamine B assay; assay type: functional; conditions: IGROV-1, 48 h
[10] = test system: HCT-15; assay: Cytotoxicity against human HCT15 cells after 48 hrs by sulforhodamine B assay; assay type: functional; conditions: HCT-15, 48 h
[11] = test system: NCI/ADR-RES; assay: Cytotoxicity against human NCI/ADR-RES cells after 48 hrs by sulforhodamine B assay; assay type: functional
[12] = test system: LOX IMVI; assay: Cytotoxicity against human LOXIMVI cells after 48 hrs by sulforhodamine B assay; assay type: functional
[13] = test system: HOP-62; assay: Cytotoxicity against human HOP62 cells after 48 hrs by sulforhodamine B assay; assay type: functional; conditions: HOP-62, 48 h
[14] = test system: HCT-116; assay: Cytotoxicity against human HCT116 cells after 48 hrs by sulforhodamine B assay; assay type: functional; conditions: HCT-116, 48 h
[15] = test system: CAKI-1; assay: Cytotoxicity against human CAKI-1 cells after 48 hrs by sulforhodamine B assay; assay type: functional; conditions: CAKI-1, 48 h
[16] = test system: TK-10; assay: Cytotoxicity against human TK10 cells after 48 hrs by sulforhodamine B assay; assay type: functional; conditions: TK-10, 48 h
[17] = test system: OVCAR-4; assay: Cytotoxicity against human OVCAR4 cells after 48 hrs by sulforhodamine B assay; assay type: functional; conditions: OVCAR-4, 48 h
[18] = test system: Mus musculus; assay: Toxicity in athymic nude mouse assessed as survival at 400 mg/kg, ip measured after 2 weeks; assay type: organism-based; design: dose 400 mg/kg, route intraperitoneal; conditions: in vivo, 336 h
[19] = test system: DU-145; assay: Cytotoxicity against human DU145 cells after 48 hrs by sulforhodamine B assay; assay type: functional; conditions: DU-145, 48 h
[20] = test system: SNB-75; assay: Cytotoxicity against human SNB75 cells after 48 hrs by sulforhodamine B assay; assay type: functional; conditions: SNB-75, 48 h
[21] = Cytotoxicity against human EKVX cells after 48 hrs by sulforhodamine B assay; assay type: functional
[22] = test system: SF-295; assay: Cytotoxicity against human SF295 cells after 48 hrs by sulforhodamine B assay; assay type: functional; conditions: SF-295, 48 h
[23] = test system: CCRF-CEM; assay: Cytotoxicity against human CCRF-CEM cells after 48 hrs by sulforhodamine B assay; assay type: functional
[24] = test system: OVCAR-3; assay: Cytotoxicity against human OVCAR3 cells after 48 hrs by sulforhodamine B assay; assay type: functional; conditions: OVCAR-3, 48 h
[25] = test system: ACHN; assay: Cytotoxicity against human ACHN cells after 48 hrs by sulforhodamine B assay; assay type: functional
[26] = test system: RXF 393; assay: Cytotoxicity against human RXF393 cells after 48 hrs by sulforhodamine B assay; assay type: functional; conditions: RXF 393, 48 h
[27] = test system: U-251; assay: Cytotoxicity against human U251 cells after 48 hrs by sulforhodamine B assay; assay type: functional; conditions: U-251, 48 h
[28] = test system: UACC-62; assay: Cytotoxicity against human UACC62 cells after 48 hrs by sulforhodamine B assay; assay type: functional; conditions: UACC-62, 48 h
[29] = test system: OVCAR-8; assay: Cytotoxicity against human OVCAR8 cells after 48 hrs by sulforhodamine B assay; assay type: functional; conditions: OVCAR-8, 48 h
[30] = test system: KM12; assay: Cytotoxicity against human KM12 cells after 48 hrs by sulforhodamine B assay; assay type: functional; conditions: KM12, 48 h
[31] = test system: MOLT-4; assay: Cytotoxicity against human MOLT4 cells after 48 hrs by sulforhodamine B assay; assay type: functional; conditions: MOLT-4, 48 h
[32] = test system: NCI-H460; assay: Cytotoxicity against human NCI-H460 cells after 48 hrs by sulforhodamine B assay; assay type: functional; conditions: NCI-H460, 48 h
[33] = test system: NCI-H322M; assay: Cytotoxicity against human NCI-H322M cells after 48 hrs by sulforhodamine B assay; assay type: functional
[34] = test system: BT-549; assay: Cytotoxicity against human BT549 cells after 48 hrs by sulforhodamine B assay; assay type: functional; conditions: BT-549, 48 h

Compound	GI50 [1]	GI50 [2]	GI50 [3]	GI50 [4]	GI50 [5]	GI50 [6]	GI50 [7]	GI50 [8]	GI50 [9]	GI50 [10]	GI50 [11]	GI50 [12]	GI50 [13]	GI50 [14]	GI50 [15]	GI50 [16]	GI50 [17]	Activity [18]	GI50 [19]	GI50 [20]	further results
O=C(N/N=C/c1ccccc1O)c1ccccc1Nc1ccnc(C(F)(F)F)c1	50.1 nM	398 nM	501 nM	200 nM	631 nM	158 nM	1260 nM	126 nM	15.8 nM	200 nM	398 nM	316 nM	398 nM	398 nM	316 nM	501 nM	251 nM	Non-toxic	631 nM	316 nM	GI50 [21]: 316 nM; GI50 [22]: 501 nM; GI50 [23]: 200 nM; GI50 [24]: 316 nM; GI50 [25]: 398 nM; GI50 [26]: 63.1 nM; GI50 [27]: 501 nM; GI50 [28]: 398 nM; GI50 [29]: 501 nM; GI50 [30]: 398 nM; GI50 [31]: 316 nM; GI50 [32]: 251 nM; GI50 [33]: 398 nM; GI50 [34]: 631 nM
COc1ccc(C(=O)N/N=C/c2ccc(O)cc2O)cc1Nc1ccnc(C(F)(F)F)c1	158 nM	316 nM	794 nM	2510 nM	316 nM	316 nM	794 nM	631 nM	631 nM	2510 nM	7940 nM	501 nM	501 nM	251 nM	631 nM	501 nM	631 nM	Non-toxic	631 nM	794 nM	GI50 [21]: 398 nM; GI50 [22]: 794 nM; GI50 [23]: 251 nM; GI50 [24]: 316 nM; GI50 [25]: 2510 nM; GI50 [26]: 10000 nM; GI50 [27]: 398 nM; GI50 [28]: 501 nM; GI50 [29]: 794 nM; GI50 [30]: 1580 nM; GI50 [31]: 398 nM; GI50 [32]: 3160 nM; GI50 [33]: 501 nM; GI50 [34]: 501 nM
COc1cccc(/C=N/NC(=O)c2ccccc2Nc2ccnc(C(F)(F)F)c2)c1O	50.1 nM	200 nM	398 nM	158 nM	631 nM	158 nM	501 nM	200 nM	25.1 nM	158 nM	501 nM	200 nM	398 nM	316 nM	200 nM	316 nM	126 nM	Non-toxic	794 nM	251 nM	GI50 [21]: 251 nM; GI50 [22]: 398 nM; GI50 [23]: 251 nM; GI50 [24]: 100 nM; GI50 [25]: 100 nM; GI50 [26]: 200 nM; GI50 [27]: 398 nM; GI50 [28]: 316 nM; GI50 [29]: 251 nM; GI50 [30]: 398 nM; GI50 [31]: 10 nM; GI50 [32]: 200 nM; GI50 [33]: 251 nM; GI50 [34]: 398 nM
